Measurements from ChEMBL document CHEMBL1201862, “PubChem BioAssay data set” (2004).
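Tested at 5 concentrations; 48 h exposure; 96-well plates; endpoints linearly interpolated, else capped at highest concentration. GI50 = concentration required for 50% inhibition of growth.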 Calls of active or inactive are those of the source. Rule as the data show it: active = GI50 up to about 1.1 µM and inactive = higher.

Assays:
Test in all cases: growth of human tumour cells (NCI), 48 h
[1] = test system: COLO 205
[2] = test system: SR
[3] = test system: SK-MEL-28
[4] = test system: A498
[5] = test system: RPMI-8226
[6] = test system: OVCAR-5
[7] = test system: NCI-H460
[8] = test system: HOP-62
[9] = test system: CAKI-1
[10] = test system: HCT-116
[11] = test system: UACC-62
[12] = test system: SK-MEL-5
[13] = test system: SK-OV-3
[14] = test system: MOLT-4
[15] = test system: DU-145
[16] = test system: HCT-15
[17] = test system: ACHN
[18] = test system: OVCAR-8
[19] = test system: OVCAR-3
[20] = test system: T47D
[21] = test system: NCI/ADR-RES
[22] = test system: K562
[23] = test system: HCC 2998
[24] = test system: TK-10
[25] = test system: SNB-75
[26] = test system: HL-60
[27] = test system: 786-0
[28] = test system: PC-3
[29] = test system: SF-295
[30] = test system: MDA-N
[31] = test system: NCI-H23
[32] = test system: LOX IMVI
[33] = test system: SN12C
[34] = test system: UACC-257
[35] = test system: EKVX
[36] = test system: OVCAR-4
[37] = test system: SK-MEL-2
[38] = test system: HOP-92
[39] = test system: IGROV-1
[40] = test system: SW-620
[41] = test system: U-251
[42] = test system: UO-31
[43] = test system: CCRF-CEM
[44] = test system: MDA-MB-231
[45] = test system: MDA-MB-435
[46] = test system: MCF7
[47] = test system: A549
[48] = test system: M14
[49] = test system: HT-29
[50] = test system: KM12
[51] = test system: SNB-19
[52] = test system: RXF 393
[53] = test system: SF-539
[54] = test system: NCI-H226
[55] = test system: Malme-3M
[56] = test system: Hs-578T
[57] = test system: NCI-H522
[58] = test system: SF-268

Measured: GI50

CO[C@@H](C(=O)OC1C=CC2(CC1)C(=O)N(C)c1ccccc12)c1ccccc1 (stereo partly drawn)
> 100 µM: [16]
inactive: [1] 60 µM | [2] 42.1 µM | [3] > 100 µM | [4] > 100 µM | [5] 50.6 µM | [6] > 100 µM | [7] > 100 µM | [8] > 100 µM | [9] > 100 µM | [10] 52.5 µM | [11] > 100 µM | [12] 34.3 µM | [13] > 100 µM | [14] 40.4 µM | [15] > 100 µM | [17] > 100 µM | [18] > 100 µM | [19] > 100 µM | [20] 44.2 µM | [21] 45.1 µM | [22] 20 µM | [23] > 100 µM | [24] > 100 µM | [25] > 100 µM | [26] 20.9 µM | [27] > 100 µM | [28] > 100 µM | [29] > 100 µM | [30] > 100 µM | [31] 76.6 µM | [32] > 100 µM | [33] > 100 µM | [34] 65.3 µM | [35] 57 µM | [36] 70.3 µM | [37] > 100 µM | [38] > 100 µM | [39] > 100 µM | [40] > 100 µM | [41] > 100 µM | [42] > 100 µM | [43] > 100 µM | [44] > 100 µM | [45] 94.8 µM | [46] 50.8 µM | [47] > 100 µM | [48] 72.6 µM | [49] 65.8 µM | [50] > 100 µM | [51] > 100 µM

COC(=O)c1cccc(C)c1C1CN=NC12Cc1c(ccc(C)c1C)C2=O (stereo not drawn)
16.4 µM: [16]
active: [12] 0.102 µM
inactive: [52] 19.2 µM | [2] 21.3 µM | [3] 50 µM | [4] 58.1 µM | [5] 17.3 µM | [53] > 100 µM | [54] 81.8 µM | [6] > 100 µM | [7] 47.6 µM | [8] 51.6 µM | [9] 91.2 µM | [10] 22.5 µM | [14] 23.6 µM | [15] 64.1 µM | [17] 34.4 µM | [18] 30.7 µM | [19] 42.2 µM | [20] 5.4 µM | [21] 33.1 µM | [22] 19 µM | [23] 40.4 µM | [24] > 100 µM | [25] 51.5 µM | [26] 12.6 µM | [55] 22.9 µM | [27] 46.2 µM | [30] 33.1 µM | [31] 64.1 µM | [32] > 100 µM | [56] 27.4 µM | [33] 13.6 µM | [34] > 100 µM | [35] 7.14 µM | [36] 56.9 µM | [57] 15.8 µM | [38] 38.4 µM | [39] 76.4 µM | [40] 29.5 µM | [41] 56 µM | [42] > 100 µM | [43] 26.1 µM | [44] 26.7 µM | [45] 35.2 µM | [46] 32.5 µM | [47] 40.6 µM | [48] 45.3 µM | [49] 25.8 µM | [58] 61.8 µM | [50] 23.3 µM | [51] 55 µM
